From patent US12559455B2, “Compound as a UBR box domain ligand” (AUTOTAC INC., priority 2020, dated 2026) come the findings set out here.

The target in one assay is T1, UBR1 (Rattus norvegicus, UniProt A0A8I5ZK69).
T1 construct: endogenous in cells; host or cells: L6 rat muscle-derived cells
T1 sequence (A0A8I5ZK69 1-1749): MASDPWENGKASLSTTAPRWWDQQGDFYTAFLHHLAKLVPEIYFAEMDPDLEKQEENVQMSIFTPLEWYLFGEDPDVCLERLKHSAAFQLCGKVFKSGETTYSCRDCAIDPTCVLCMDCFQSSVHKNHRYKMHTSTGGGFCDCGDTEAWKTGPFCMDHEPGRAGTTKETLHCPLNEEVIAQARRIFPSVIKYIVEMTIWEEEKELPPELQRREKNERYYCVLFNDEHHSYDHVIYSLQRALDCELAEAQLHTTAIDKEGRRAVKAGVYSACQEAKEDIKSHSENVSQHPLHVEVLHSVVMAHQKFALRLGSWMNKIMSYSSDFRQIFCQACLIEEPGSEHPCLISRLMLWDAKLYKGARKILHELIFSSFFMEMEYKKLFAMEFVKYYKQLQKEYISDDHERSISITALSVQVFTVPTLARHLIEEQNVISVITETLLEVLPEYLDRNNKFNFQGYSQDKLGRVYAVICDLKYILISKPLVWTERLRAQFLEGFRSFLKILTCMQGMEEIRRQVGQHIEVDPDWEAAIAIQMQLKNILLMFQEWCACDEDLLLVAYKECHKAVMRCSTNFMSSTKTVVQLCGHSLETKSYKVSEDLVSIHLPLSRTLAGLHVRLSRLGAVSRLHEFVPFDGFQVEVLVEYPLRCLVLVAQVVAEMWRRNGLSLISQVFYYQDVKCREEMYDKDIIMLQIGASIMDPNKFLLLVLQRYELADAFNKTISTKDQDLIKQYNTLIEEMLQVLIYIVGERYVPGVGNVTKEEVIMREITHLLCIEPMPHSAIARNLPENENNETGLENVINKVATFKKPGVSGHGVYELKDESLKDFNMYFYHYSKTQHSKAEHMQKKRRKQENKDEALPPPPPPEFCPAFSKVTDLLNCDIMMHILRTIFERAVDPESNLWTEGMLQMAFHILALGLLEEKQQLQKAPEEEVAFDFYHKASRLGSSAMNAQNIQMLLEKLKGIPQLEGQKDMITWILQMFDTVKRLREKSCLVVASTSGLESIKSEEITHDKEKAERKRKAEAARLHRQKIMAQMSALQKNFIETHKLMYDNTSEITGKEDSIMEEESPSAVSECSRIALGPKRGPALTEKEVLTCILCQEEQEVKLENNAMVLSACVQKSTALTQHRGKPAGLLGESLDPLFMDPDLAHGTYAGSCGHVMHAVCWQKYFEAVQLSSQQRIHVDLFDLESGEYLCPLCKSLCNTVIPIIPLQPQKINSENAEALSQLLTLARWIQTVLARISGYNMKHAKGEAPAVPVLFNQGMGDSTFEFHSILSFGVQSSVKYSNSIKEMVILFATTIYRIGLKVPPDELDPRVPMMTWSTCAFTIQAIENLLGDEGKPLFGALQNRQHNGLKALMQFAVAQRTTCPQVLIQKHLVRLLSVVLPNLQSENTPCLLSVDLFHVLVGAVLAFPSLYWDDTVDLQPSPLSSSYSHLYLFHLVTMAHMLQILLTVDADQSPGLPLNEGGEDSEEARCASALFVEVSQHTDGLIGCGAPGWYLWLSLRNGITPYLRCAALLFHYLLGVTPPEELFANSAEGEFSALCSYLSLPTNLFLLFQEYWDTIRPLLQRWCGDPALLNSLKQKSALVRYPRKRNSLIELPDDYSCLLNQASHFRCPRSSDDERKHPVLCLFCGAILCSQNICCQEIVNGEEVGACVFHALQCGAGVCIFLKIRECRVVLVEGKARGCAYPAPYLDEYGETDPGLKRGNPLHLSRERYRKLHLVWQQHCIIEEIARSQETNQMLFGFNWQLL
Kind of assay: Inhibition of muscle cell actin degradation by immunoblotting. It is filed as cell-based. The settings on record: L6 cell line, compound 5 uM, 24 hours. The protocol: To evaluate the actin degradation of compounds in muscle cells, a L6 cell line, which is a rat muscle-derived cell, was cultured using a DMEM medium containing 10% FBS and 1% streptomycin/penicillin in an incubator in which 5% carbon dioxide was maintained. In order to measure the UBR1 binding strength according to the treatment with a representative compound selected from the present compounds, cells were aliquoted into a 12-well plate. The cells were additionally cultured for 24 hours so as to be completely attached to the surface of the plate. […] To extract proteins from the collected cells, 50 uL of a lysis buffer (20 mM Tris, pH 7.4, 150 mM NaCl, 1% Triton-X-100, 2 mM NaF, 2 mM EDTA, 2 mM b-glycerophosphate, 5 mM sodium orthovanadate, 1 mM PMSF, leupeptin, aprotenin) was injected into each sample, and the cells were lysed. A sample buffer was added to each sample based on the measured total protein concentration, and the mixture was reacted at 100° C. for 5 minutes. After 5 uL was taken from the completely reacted sample and aliquoted into each well of an acrylamide gel, an immunoblotting method was performed, and the experimental results were illustrated in [FIG. 4], [FIG. 5], [FIG. 6], [FIG. 7], [FIG. 8], and [FIG. 9]. For the immunoblotting method, a representative experiment was schematized from three or more independent experiments.
(Immunoblotting shows a protein as a band on a membrane.)
For `Cc1ccc(S(=O)(=O)NNC(=O)c2ccc(O)cc2)cc1` [Compound 1, N′-(4-hydroxybenzoyl)-4-methylbenzenesulfonohydrazide], the “level of ACTA1 compared to the control” value is reported as “further increased”.

For `Nc1ccc(S(=O)(=O)NNC(=O)c2ccc(-c3ccccc3)cc2)cc1` [Compound 6, N′-([1,1′-biphenyl]-4-carbonyl)-4-aminobenzenesulfonohydrazide], the “level of ACTA1 compared to the control” value is reported as “further increased”.

Take `Nc1cccc(S(=O)(=O)NNC(=O)c2ccc(O)cc2)c1` [Compound 8, 3-amino-N′-(4-hydroxybenzoyl)benzenesulfonohydrazide]: the “level of ACTA2 compared to the control” value is listed as “further increased”.

For `NC(=O)c1ccc(S(=O)(=O)NNC(=O)c2ccc(O)cc2)cc1` [Compound 15, 4-((2-(4-hydroxybenzoyl)hydrazinyl)sulfonyl)benzamide], the “level of ACTG2 compared to the control” value is on record as “further increased”.

Take `Nc1ccc(S(=O)(=O)NNC(=O)c2ccc(O)cc2)cc1-c1ccccc1` [Compound 17, 6-amino-N′-(4-hydroxybenzoyl)-[1,1′-biphenyl]-3-sulfonohydrazide]: the “level of ACTG2 compared to the control” value is “further increased”.

Consider `NC(=O)c1ccc(C(=O)NNS(=O)(=O)c2ccc(N)cc2)cc1` [Compound 18, 4-(2-((4-aminophenyl)sulfonyl)hydrazine-1-carbonyl)benzamide], for which the “level of ACTA2 compared to the control” value is reported as “further increased”.

With `Nc1ccc(CNNC(=O)c2ccc(O)cc2)cc1` [Compound 19, N′-(4-aminobenzyl)-4-hydroxybenzohydrazide], the “level of ACTA2 compared to the control” value was “further increased”.

In the case of `Nc1ccc(S(=O)(=O)NNC(=O)c2c[nH]c3ccccc23)cc1` [Compound 20, 4-amino-N′-(1H-indole-3-carbonyl)benzenesulfonohydrazide], the “level of ACTA2 compared to the control” value is “further increased”.

As to `O=C(NNS(=O)(=O)c1ccc([N+](=O)[O-])c(N2CCCC2)c1)c1ccc(O)cc1` [Compound 22, N′-(4-hydroxybenzoyl)-4-nitro-3-(pyrrolidin-1-yl)benzenesulfonohydrazide], the “level of ACTA2 compared to the control” value was “further increased”.

Turning to `Nc1ccc(S(=O)(=O)NNC(=O)c2ccc(O)cc2)cc1N1CCCCC1` [Compound 23, 4-amino-N′-(4-hydroxybenzoyl)-3-(piperidin-1-yl)benzenesulfonohydrazide], the “level of ACTA2 compared to the control” value is given as “further increased”.

Regarding `O=C(NNS(=O)(=O)c1cn[nH]c1)c1ccc(O)cc1` [Compound 24, N′-(4-hydroxybenzoyl)-1H-pyrazole-4-sulfonohydrazide], the “level of ACTA2 compared to the control” value is listed as “further increased”.

Consider `O=C(NNS(=O)(=O)c1cccc2c1CCN2)c1ccc(O)cc1` [Compound 25, N′-(4-hydroxybenzoyl)indoline-4-sulfonohydrazide], for which the “level of ACTA2 compared to the control” value is “further increased”.

With `O=C(NNS(=O)(=O)c1cccc2[nH]ccc12)c1ccc(O)cc1` [Compound 26, N′-(4-hydroxybenzoyl)-1H-indole-4-sulfonohydrazide], the “level of ACTA2 compared to the control” value is “further increased”.

`Nc1ccc(S(=O)(=O)NNC(=O)Nc2ccccc2)cc1` [Compound 27, 2-((4-aminophenyl)sulfonyl)-N-phenylhydrazine-1-carboxamide]: the “level of ACTA2 compared to the control” value is listed as “further increased”.

In the case of `Nc1ccc(S(=O)(=O)NNC(=O)c2cccc3[nH]ccc23)cc1N1CCOCC1` [Compound 28, 4-amino-N′-(1H-indole-4-carbonyl)-3-morpholinobenzenesulfonohydrazide], the “level of ACTA2 compared to the control” value was “further increased”.

Take `Nc1ccc(S(=O)(=O)NNC(=O)c2cccc3c2CCN3)cc1` [Compound 29, 4-amino-N′-(indoline-4-carbonyl)benzenesulfonohydrazide]: the “level of ACTG2 compared to the control” value is recorded as “further increased”.

Consider `Nc1ccc(S(=O)(=O)NNC(=O)c2ccc(O)cc2)cc1N1CCNCC1` [Compound 30, 4-amino-N′-(4-hydroxybenzoyl)-3-(piperazin-1-yl)benzenesulfonohydrazide], for which the “level of ACTG2 compared to the control” value is “further increased”.

With `Nc1ccc(S(=O)(=O)NNC(=O)C2Cc3ccccc3C2)cc1` [Compound 31, 4-amino-N′-(2,3-dihydro-1H-indene-2-carbonyl)benzenesulfonohydrazide], the “level of ACTG2 compared to the control” value is given as “further increased”.

For the compound `Nc1ccc(S(=O)(=O)NNC(=O)N2Cc3ccccc3C2)cc1` [Compound 32, 4-amino-N′-(isoindoline-2-carbonyl)benzenesulfonohydrazide], the “level of ACTA2 compared to the control” value is listed as “further increased”.

Turning to `Nc1ccc(S(=O)(=O)NNC(=O)Cc2ccccc2)cc1` [Compound 34, 4-amino-N′-(2-phenylacetyl)benzenesulfonohydrazide], the “level of ACTA2 compared to the control” value is “further increased”.

Consider `O=C(NNS(=O)(=O)c1n[nH]c2ccccc12)c1ccc(O)cc1` [Compound 35, N′-(4-hydroxybenzoyl)-1H-indazole-3-sulfonohydrazide], for which the “level of ACTA1 compared to the control” value is reported as “further increased”.

On to `Nc1ccc(S(=O)(=O)NNC(=O)c2ccc3c(c2)NCC3)cc1` [Compound 36, 4-amino-N′-(indoline-6-carbonyl)benzenesulfonohydrazide], for which the “level of ACTA1 compared to the control” value is on record as “further increased”.

As for `Nc1ccc(S(=O)(=O)NNC(=O)C2CNc3ccccc32)cc1` (centres unmarked) [Compound 37, 4-amino-N′-(indoline-3-carbonyl)benzenesulfonohydrazide], the “level of ACTA1 compared to the control” value is listed as “further increased”.

Consider `O=C(NNS(=O)(=O)C1CCNCC1)c1ccc(O)cc1` [Compound 38, N′-(4-hydroxybenzoyl)piperidine-4-sulfonohydrazide], for which the “level of ACTA1 compared to the control” value was “further increased”.

Regarding `Nc1ccc(S(=O)(=O)NNC(=O)c2ccc3c(c2)NCC3)cc1N1CCOCC1` [Compound 39, 4-amino-N′-(indoline-6-carbonyl)-3-morpholinobenzenesulfonohydrazide], the “level of ACTA1 compared to the control” value was “further increased”.

For the compound `Nc1ccc(S(=O)(=O)NNC(=O)N2CCNCC2)cc1N1CCOCC1` [Compound 41, 4-amino-3-morpholino-N′-(piperazine-1-carbonyl)benzenesulfonohydrazide], the “level of ACTC1 compared to the control” value is recorded as “further increased”.

With `Cc1nc(S(=O)(=O)NNC(=O)c2ccc(O)cc2)cs1` [Compound 42, N′-(4-hydroxybenzoyl)-2-methylthiazole-4-sulfonohydrazide], the “level of ACTC1 compared to the control” value is “further increased”.

`NC1CCC(S(=O)(=O)NNC(=O)c2ccc(O)cc2)CC1` [Compound 43, (1S,4S)-4-amino-N′-(4-hydroxybenzoyl)cyclohexane-1-sulfonohydrazide]: the “level of ACTA1 compared to the control” value is “further increased”.

For `Cc1oc(C(=O)O)cc1S(=O)(=O)NNC(=O)c1ccc(O)cc1` [Compound 45, 4-((2-(4-hydroxybenzoyl)hydrazinyl)sulfonyl)-5-methylfuran-2-carboxylic acid], the “level of ACTA1 compared to the control” value is on record as “further increased”.

On to `O=C(NNS(=O)(=O)C1CCNC1)c1ccc(O)cc1` (centres unmarked) [Compound 46, N′-(4-hydroxybenzoyl)pyrrolidine-3-sulfonohydrazide], for which the “level of ACTA1 compared to the control” value was “further increased”.

As to `O=C(NNS(=O)(=O)c1cc2cccnc2[nH]1)c1ccc(O)cc1` [Compound 47, N′-(4-hydroxybenzoyl)-1H-pyrrolo[2,3-b]pyridine-2-sulfonohydrazide], the “level of ACTA1 compared to the control” value is “further increased”.

For the compound “(1R,4R)-4-amino-N′-(4-hydroxybenzoyl)cyclohexane-1-sulfonohydrazide [Compound 44]”, the “level of ACTA1 compared to the control” value is “further increased”.

In a further assay the target is T2, UBR box of Human UBR1 (Homo sapiens, UniProt Q8IWV7).
T2 construct: A Gln97-Pro168 portion corresponding to the UBR box of Human UBR1; made in house; host or cells: E. coli
T2 sequence (Q8IWV7 97-168): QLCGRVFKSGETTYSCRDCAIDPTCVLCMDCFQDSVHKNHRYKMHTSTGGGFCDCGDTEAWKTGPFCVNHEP
Kind of assay: UBR box domain binding by microscale thermophoresis (MST). To be noted: RED-NHS labeled UBR1 UBR box protein (Gln97-Pro168), FIGS. 12 to 19. The protocol: A Gln97-Pro168 portion corresponding to the UBR box of Human UBR1 (UniProt ID: Q81WV7) was cloned into a modified expression vector, and then expressed in E. coli. After affinity chromatography was used, a tag was removed by a protease, and then Gly-His-Met was added to the N-terminal. After ion chromatography was performed, a final UBR box protein of a UBR1 was purified using gel filtration chromatography in a buffer composition of 10 mM NaCl, 20 mM Tris-HCl, 2 mM beta-mercaptoethanol, and pH 7.5.
A dye of the Monolith protein labeling kit RED-NHS 2nd generation (Cat #MO-L011) has an NHS-ester group that forms a covalent bond with primary amines (lysine residues). This dye is optimized for a Monolith-series device equipped with a RED detector. A purified UBR1 UBR box protein was labeled according to the presented protocol using this kit.
Thermophoresis refers to a phenomenon in which particles move due to a temperature gradient. Particles present in a high temperature region have greater kinetic energy than particles present in a low temperature region, and more frequently collide with surrounding particles with greater energy. As a result, particles move from the high temperature region to the low temperature region.
Thermophoresis of proteins is typically different from that of protein-ligand complexes. This is because the binding of the ligand changes its size, electric charge, and solvation energy. […] Therefore, the binding of the UBR1 UBR box protein and the ligand compound was measured using MST, and it was confirmed that the presented ligand binds to the UBR1 UBR box (see FIGS. 12 to 19).
A general note: MST reads how a fluorescent partner responds to local heating, with and without ligand.
As to `Cc1ccc(S(=O)(=O)NNC(=O)c2ccc(O)cc2)cc1` [Compound 1, N′-(4-hydroxybenzoyl)-4-methylbenzenesulfonohydrazide], the “binding to UBR1 UBR box (MST)” value is given as “binds”.

Take `Nc1cccc(S(=O)(=O)NNC(=O)c2ccc(O)cc2)c1` [Compound 8, 3-amino-N′-(4-hydroxybenzoyl)benzenesulfonohydrazide]: the “binding to UBR1 UBR box (MST)” value is “binds”.

`O=C(NNS(=O)(=O)c1ccc(NCCO)cc1)c1ccc(O)cc1` [Compound 11, N′-(4-hydroxybenzoyl)-4-((2-hydroxyethyl)amino)benzenesulfonohydrazide]: the “binding to UBR1 UBR box (MST)” value is “binds”.
